Experimental data reported in BigSolDB 2.1.

CCS(=O)(=O)c1cccnc1S(=O)(=O)NC(=O)Nc1nc(OC)cc(OC)n1
solubility (mole fraction)
Conditions	278.15 K	283.15 K	288.15 K	293.15 K	298.15 K	303.15 K	308.15 K	313.15 K	318.15 K	323.15 K
in DMF	5.64e-05	7.09e-05	8.7e-05	0.000106	0.000125	0.000148	0.000172	0.000199	0.000228	0.000262
in ethanol	1.91e-05	2.32e-05	2.82e-05	3.4e-05	4.03e-05	4.76e-05	5.52e-05	6.36e-05	7.34e-05	8.5e-05
in ethylene glycol	7.03e-06	8.83e-06	1.07e-05	1.28e-05	1.53e-05	1.79e-05	2.08e-05	2.38e-05	2.76e-05	3.19e-05
in methanol	2.17e-05	2.67e-05	3.26e-05	3.96e-05	4.7e-05	5.5e-05	6.37e-05	7.48e-05	8.56e-05	9.85e-05
in water	2.28e-07	2.82e-07	3.44e-07	4.13e-07	4.88e-07	5.76e-07	6.77e-07	7.75e-07	8.96e-07	1.02e-06
